Experiment [1] relates to histone H3 hyperacetylation in HeLa cervical carcinoma cells. The experiment can be described thus: Cellular histone H3 hyperacetylation assay. It counts as cell-based. The note with it: Homo sapiens, 24 h treatment. The source says:
To assess the cellular efficacy of a histone deacetylase inhibitor in vitro, an assay is set up in black clear-bottom 96-well plates and optimized for use on the Cellomics “ArrayScan II” platform for a quantitative calculation of histone acetylation. The protocol uses a polyclonal rabbit antibody, specifically binding to acetylated lysine 1-20 (including K 9 and K14) of human histone H3 on fixed cells with an Alexa Fluor 488 labeled goat anti rabbit-IgG used for counterstaining 5×10^3 HeLa cervical carcinoma cells/well (ATCC CCL-2) in 200 μl Dulbecco's modified Eagle's medium (DMEM) containing 10% fetal calf serum are seeded at day 1 in Packard view plates and incubated for 24 h under standard cell culture conditions. On day 2, 1 μl test compound (200× final concentration) is added and incubation continued for further 24 h. On day 3, the culture medium is discarded and attached cells fixed for 15 min at room temperature by addition of 100 μl fixation buffer (3.7% v:v formaldehyde in phosphate buffered saline/PBS). After discarding the fixation buffer and one wash with blocking solution (1% BSA, 0.3% Tween 20 in PBS), cells are permeabilized at room temperature by addition of 100 μl /well permeabilization buffer (30.8 mM NaCl, 0.54 mM Na2HPO4, 0.31 mM KH2PO4, 0.1% v:v Triton X-100) for 15 min at room temperature. After discarding the permeabilization buffer and washing twice with 100 μl/well blocking solution at room temperature, the 1st antibody (anti-K1-20 histone H3 antibody, Calbiochem No. 382158) in blocking solution (50 μl/well) is added. After incubation for 1 h at room temperature, the wells are washed twice at room temperature with 100 μl/well blocking solution before addition of the 2nd antibody (goat-anti-rabbit Alexa Fluor 488; MoBiTec No. A -11008) in blocking solution (50 μl well). After further incubation for 1 h at room temperature, wells are washed twice with 100 μl/well blocking solution at room temperature. Finally, 100 μl/well PBS are added and image analysis performed on the Cellomics “ArrayScan II” platform. For EC50 determination, the percentage of positive cells showing nuclear fluorescence is determined and EC50 calculation done from concentration-effect curves by means of non-linear regression. For calibration, a positive (reference HDAC inhibitors like SAHA or NVP LBH-589) and a negative control were included.

Another experiment concerns A549 NSCLC cells. The experiment can be described thus: Cellular cytotoxicity assay (Alamar Blue), A549. It counts as cell-based. The note with it: Homo sapiens, 72 h, upper end given as ≧100, read-out: IC50 (μM), cytotoxicity towards A549 NSCLC cells. The essentials:
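Resazurin-to-resorufin fluorescence (ex 544, em 590 nm, after 4 h) gave viability as % of untreated cells following 72 h compound exposure at 37 °C. Compounds were added in semi-logarithmic dilutions 24 h post-seeding, quadruplicate wells; IC50 fitted by non-linear regression of concentration-effect curves.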
On the technique in general: Resazurin is reduced to fluorescent resorufin, in cell work by metabolically active cells.

Where [2] appears, read: read-out: EC50, induction of histone H3 hyperacetylation.
Setting [3] is: read-out: −lg EC50, induction of histone H3 hyperacetylation.

Where two headings read alike, the source gives them in different places. Bounds are passed on as bounds.

For the compound `Nc1ccccc1NC(=O)c1nc2c(s1)CN(C(=O)NCc1ccccc1)CC2` [Example 4, N^2-(2-aminophenyl)-N5-benzyl-6,7-dihydro[1,3]thiazolo[5,4-c]pyridine-2,5(4H)-dicarboxamide], the EC50 fell in the range of 150 to 15000 nM in experiment [1] (setting [2]) and 251 to 15800 nM in experiment [1] (setting [3]). Also, in the experiment on A549 NSCLC cells, the IC50 was ≥ 0.2 µM.

Regarding `Nc1ccccc1NC(=O)c1nc2c(s1)CN(C(=O)Nc1ccc3c(c1)OCO3)CC2` [Example 7, N^2-(2-aminophenyl)-N5-1,3-benzodioxol-5-yl-6,7-dihydro[1,3]thiazolo[5,4-c]pyridine-2,5(4H)-dicarboxamide], the EC50 lay in the range of 150 to 15000 nM in experiment [1] (setting [2]) and 251 to 15800 nM in experiment [1] (setting [3]). Moreover, the IC50 in the experiment with A549 NSCLC cells is ≥ 0.2 µM.

Regarding `Cc1ccc(NC(=O)N2CCc3nc(C(=O)Nc4ccccc4N)sc3C2)cc1` [Example 13, N^2-(2-aminophenyl)-N^5-(4-methylphenyl)-6,7-dihydro[1,3]thiazolo[5,4-c]-pyridine-2,5(4H)-dicarboxamide], the results for the EC50 in experiment [1] (setting [2]) and in experiment [1] (setting [3]) were 150 to 15000 nM and 251 to 15800 nM, respectively. In addition, in the experiment with A549 NSCLC cells, the IC50 was ≥ 0.2 µM.

With `Nc1ccccc1NC(=O)c1nc2c(s1)CN(C(=O)NCc1cccnc1)CC2` [Example 14, N^2-(2-aminophenyl)-N^5-(pyridin-3-ylmethyl)-6,7-dihydro[1,3]thiazolo[5,4-c]pyridine-2,5(4H)-dicarboxamide], the values for the EC50 in experiment [1] (setting [2]) and in experiment [1] (setting [3]) were 150 to 15000 nM and 251 to 15800 nM, respectively. Also, the IC50 in the experiment with A549 NSCLC cells is ≥ 0.2 µM.

Take `Nc1ccccc1NC(=O)c1nc2c(s1)CN(C(=O)Nc1ccncc1)CC2` [Example 15, N^2-(2-aminophenyl)-N^5-pyridin-4-yl-6,7-dihydro[1,3]thiazolo[5,4-c]pyridine-2,5(4H)-dicarboxamide]: the EC50 in experiment [1] (setting [2]) was in the range of 150 to 15000 nM; in experiment [1] (setting [3]) it was 251 to 15800 nM. Further, the IC50 in the experiment on A549 NSCLC cells is ≥ 0.2 µM.

For the compound `COCCNC(=O)N1CCc2nc(C(=O)Nc3ccccc3N)sc2C1` [Example 16, N^2-(2-aminophenyl)-N^5-(2-methoxyethyl)-6,7-dihydro[1,3]thiazolo[5,4-c]-pyridine-2,5(4H)-dicarboxamide], the EC50 in experiment [1] (setting [2]) lay in the range of 150 to 15000 nM; in experiment [1] (setting [3]), 251 to 15800 nM. Moreover, in the experiment on A549 NSCLC cells, the IC50 is ≥ 0.2 µM.

For the compound `CN(C)c1cccc(NC(=O)N2CCc3nc(C(=O)Nc4ccccc4N)sc3C2)c1` [Example 18, N^2-(2-aminophenyl)-N^5-[3-(dimethylantino)phenyl]-6,7-dihydro[1,3]thiazolo[5,4-c]pyridine-2,5(4H)-dicarboxamide], the EC50 fell in the range of 150 to 15000 nM in experiment [1] (setting [2]) and 251 to 15800 nM in experiment [1] (setting [3]). In the experiment on A549 NSCLC cells, the IC50 is ≥ 0.2 µM.

On to `COc1ccc(NC(=O)N2CCc3nc(C(=O)Nc4ccccc4N)sc3C2)cc1OC` [Example 19, N^2-(2-aminophenyl)-N^5-(3,4-dimethoxyphenyl)-6,7-dihydro[1,3]thiazolo[5,4-c]pyridine-2,5(4H)-dicarboxamide], for which the EC50 in experiment [1] (setting [2]) lay in the range of 150 to 15000 nM; in experiment [1] (setting [3]) it was 251 to 15800 nM. For the same compound, the concentration for half-maximal inhibition (IC50) in the experiment on A549 NSCLC cells was ≥ 0.2 µM.

Turning to `CN(C)c1ccc(NC(=O)N2CCc3nc(C(=O)Nc4ccccc4N)sc3C2)cn1` [Example 36, N^2-(2-aminophenyl)-N^5-[6-(dimethylamino)pyridin-3-yl]-6,7-dihydro[1,3]thiazolo[5,4-c]pyridine-2,5(4H)-dicarboxamide], the EC50 was in the range of 150 to 15000 nM in experiment [1] (setting [2]) and 251 to 15800 nM in experiment [1] (setting [3]). In addition, the IC50 in the experiment with A549 NSCLC cells is ≥ 0.2 µM.

For `CN1CCN(c2ccc(NC(=O)N3CCc4nc(C(=O)Nc5ccccc5N)sc4C3)cn2)CC1` [Example 37, N^2-(2-aminophenyl)-N^5-[6-(4-methylpiperazin-1-yl)pyridin-3-yl]-6,7-dihydro[1,3]thiazolo[5,4-c]pyridine-2,5(4H)-dicarboxamide], the EC50 in experiment [1] (setting [2]) fell in the range of 150 to 15000 nM; in experiment [1] (setting [3]), 251 to 15800 nM. Also, the IC50 in the experiment on A549 NSCLC cells is ≥ 0.2 µM.

`Nc1ccccc1NC(=O)c1nc2c(s1)CN(C(=O)Nc1cccnc1)CC2` [Example 39, N^2-(2-aminophenyl)-N^5-pyridin-3-yl-6,7-dihydro[1,3]thiazolo[5,4-c]pyridine-2,5(4H)-dicarboxamide]: the EC50 lay in the range of 150 to 15000 nM in experiment [1] (setting [2]) and 251 to 15800 nM in experiment [1] (setting [3]). Moreover, the IC50 in the experiment on A549 NSCLC cells is ≥ 0.2 µM.

The EC50 is the concentration giving half of the maximal effect. For orientation: IC50 means the concentration that gives 50% inhibition.

These data come from patent US8440830B2, “Tetrahydro-fused pyridines as histone deacetylase inhibitors” (4SC AG, priority 2007, dated 2013).
